The values below come from patent publication US9127164B2, “Fluorescent dyes and uses thereof” (ALMAC SCIENCES (SCOTLAND) LIMITED, priority 2005, dated 2015).

SMILES strings stand for the structures. Read-outs that look alike come from different tables or passages of the source. Peptide text beside a SMILES is read from it. * marks the point of attachment. Propanoyl(3-(9AA-2-yl)) = Nc1c2ccccc2nc2ccc(CCC(=O)*)cc12

Data set [1] can be described thus: Fluorescence lifetime by time-correlated single photon counting (Edinburgh Instruments FLS920). Format: physicochemical. The settings on record: for Lifetime* (ns): Table 3, molecules synthesised; for Fluorescence Lifetime (nsecs) in PBS pH 7.4: excited at 405 nm, detection at 450 nm, 10 mM phosphate buffered saline pH 7.4; for Lifetime (ns): Table 2, 9-aminoacridine derivatives. As for the experimental part: Fluorescence lifetimes were determined by time-correlated single photon counting using an Edinburgh Instruments FLS920 fluorimeter. Samples were excited at 405 nm with detection at 450 nm. Measurements were recorded in 10 mM phosphate buffered saline pH 7.4.
Excitation wavelength 405 nm and emission wavelength 450 nm.

The nature of data set [2]: Fluorescence emission spectra / intensity. The conditions noted are these: for fluorescence emission intensity compared with N-methyl acridone: excitation at 405 nm, 140 mM NaCl, 10 mM phosphate buffer pH 7.4; for Relative intensity Ex405 nm, Emmax: relative to 9-aminoacridine = 1. It is filed as physicochemical. As to the method:
Fluorescence emission spectra of 10-methyl-9(10H)-thioacridone (N-methyl thioacridone) and 10-methyl-9(10H)-acridone (N-methylacridone) in 140 mM NaCl, 10 mM phosphate buffer pH 7.4 upon excitation at 405 nm, were obtained. The thioacridone concentration is 500 nM and the 10-methyl-9(10H)-acridone (N-methylacridone) concentration is 100 nM.
Fluorescence emission spectra of 9-aminoacridine and 10-methyl-9(10H)-acridone (N-methylacridone) upon excitation at 405 nm. Both compounds at a concentration of 100 nM in 140 mM NaCl, 10 mM phosphate buffer pH 7.4, were obtained.
Fluorescence emission spectrum of (Acridin-9-ylamino)acetic acid ethyl ester at 100 nM concentration in 140 mM NaCl, 10 mM phosphate buffer pH 7.4 upon excitation at 405 nm is shown in FIG. 4.

For data set [3], the target named is T1, Caspase-3 recombinant enzyme (Homo sapiens, UniProt P42574).
T1 construct: purchased Calbiochem
T1 sequence (P42574 29-175 limits assumed): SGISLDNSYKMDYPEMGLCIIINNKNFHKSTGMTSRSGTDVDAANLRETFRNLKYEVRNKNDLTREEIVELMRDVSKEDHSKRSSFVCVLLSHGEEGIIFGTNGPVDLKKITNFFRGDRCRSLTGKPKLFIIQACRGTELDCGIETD
T1 sequence (P42574 176-277 limits assumed): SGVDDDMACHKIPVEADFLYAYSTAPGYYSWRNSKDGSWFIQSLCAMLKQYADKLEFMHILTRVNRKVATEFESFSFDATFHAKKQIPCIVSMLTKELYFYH
Briefly: Fluorescence lifetime based Caspase-3 cleavage assay of dye-labelled DEVDSW peptide. It is filed as biochemical. The conditions noted are these: 1 uM substrate. As to the method: The 9-aminoacridine labelled peptide substrate, AA-DEVDSW (1 uM concentration in […] buffer pH 7.4 containing 10% sucrose, 0.1% CHAPS, 100 mM NaCl, 1 mM EDTA, 10 mM DTT) was employed in a biochemical assay using Caspase-3 recombinant enzyme (50 U and 20 U) at 30° C. The assay mixture was analysed at time intervals using an Edinburgh Instruments Fluorescence Lifetime Plate Reader. […] The data could also be easily viewed as a change in percentage cleavage over time, confirming that the reaction was progressing to completion after 90 minutes when 50 units of caspase 3 was employed (see FIGS. 8 and 9).
• Buffer: 20 mM HEPES buffer pH7.4 containing 10% sucrose, 0.1% CHAPS, 100 mM NaCl, 1 mM EDTA, 10 mM DTT • Substrate solution: 10 uM 3-(9-aminoacridin-2-yl) propionyl-DEVDSW in buffer. • Product solution: 10 uM 3-(9-aminoacridin-2-yl) propionyl-DEVDSK in buffer. • Enzyme solution: 10 U/ul in buffer. Procedure
To the well of a 96-well plate was added buffer (88 ul), substrate solution (10 ul, 1 uM final conc.) and enzyme (2 ul for 20 U). Reactions were performed in triplicate and also at varying enzyme concentrations. The reaction progress was followed at time intervals using an Edinburgh Instruments Fluorescence Lifetime Plate Reader against wells containing product and substrate standards.
The partially quenched 9-aminoacridine-labelled peptide substrate, 3-(9-aminoacridin-2-yl) propionyl-DEVDSW, was employed in a biochemical enzymatic cleavage assay using recombinant Caspase-3 enzyme purchased from Calbiochem. The assay was carried out using 1 uM substrate concentration in 20 mM HEPES buffer pH 7.4 containing 10% sucrose, 0.1% CHAPS, 100 mM NaCl, 1 mM EDTA, 10 mM DTT, in the presence of either 20 or 50 units of enzyme (100 ul final volume). The assay mixture was analysed at time intervals using an Edinburgh Instruments Fluorescence Lifetime Plate Reader. […] The deviation in fluorescence lifetime from that stated above was a consequence of the buffer system.

The nature of data set [4]: Fluorescence emission spectra / intensity. Format: physicochemical.
The mark [5] stands for this setting: 20 mM HEPES buffer pH 7.4, 20 or 50 units of enzyme.

In the case of `CC(C)(C)OC(=O)/C=C/c1ccc2nc3ccccc3c(N)c2c1` [3-(9-Amino-acridin-2-yl)-acrylic acid tert-butyl ester], the “Lifetime* (ns)” value in data set [1] is reported as 11.2 ns.

For the molecule `CC(C)[C@H](NC(=O)[C@H](CCC(=O)O)NC(=O)[C@H](CC(=O)O)NC(=O)CCc1ccc2nc3ccccc3c(N)c2c1)C(=O)N[C@@H](CC(=O)O)C(=O)N[C@@H](CO)C(=O)N[C@@H](CCCCN)C(=O)O` [3-(9-Amino-acridin-2-yl)-propionyl-DEVDSK] ({Propanoyl(3-(9AA-2-yl))}-DEVDSK-OH), the “fluorescence properties (emission spectrum, intensity, lifetime) compared with 9-aminoacridine” value in data set [2] is “comparable emission spectrum and fluorescence intensity to that of 9-aminoacridine”. Further, in data set [1], the “fluorescence lifetime” value was determined as 17.7 ns and the “Lifetime* (ns)” value turned out to be 17.7 ns.

On to `CC(C)[C@H](NC(=O)[C@H](CCC(=O)O)NC(=O)[C@H](CC(=O)O)NC(=O)CCc1ccc2nc3ccccc3c(N)c2c1)C(=O)N[C@@H](CC(=O)O)C(=O)N[C@@H](CO)C(=O)N[C@@H](Cc1c[nH]c2ccccc12)C(=O)O` [3-(9-Amino-acridin-2-yl)-propionyl-DEVDSW] ({Propanoyl(3-(9AA-2-yl))}-DEVDSW-OH), for which, in data set [3] (setting [5]), the “fluorescence lifetime of reaction mixture after cleavage” value came out at 15.5 ns and the “fluorescence lifetime of reaction mixture at start of reaction” value was found to be 8.5 ns. In data set [3] (50 units of caspase 3 enzyme, 20 mM HEPES buffer pH 7.4), the “time at which cleavage reaction was progressing to completion” value came out at 60 min. Moreover, the “fluorescence intensity quenched by tryptophan” value in data set [4] (tryptophan (W) containing labelled peptide versus lysine (K) containing labelled peptide) turned out to be 75%. Moreover, in data set [1], the “fluorescence lifetime” value worked out at 7.6 ns and the “Lifetime* (ns)” value is 7.7 ns.

As to `CC(C)(C)OC(=O)CCc1ccc2nc3ccccc3c(N)c2c1` [3-(9-amino-acridin-2-yl)-propionic acid tert-butyl ester], the “fluorescence properties (emission spectrum, intensity, lifetime) compared with 9-aminoacridine” value in data set [2] was “comparable to the parent 9-aminoacridine”. Besides, the “Lifetime* (ns)” value in data set [1] turned out to be 16.7 ns.

`Nc1c2ccccc2nc2ccc(CCC(=O)O)cc12` [3-(9-amino-acridin-2-yl)-propionic acid]: the “fluorescence properties (emission spectrum, intensity, lifetime) compared with 9-aminoacridine” value in data set [2] is “comparable to the parent 9-aminoacridine”. Also, in data set [1], the “Lifetime* (ns)” value is listed as 17.0 ns.

Regarding `CCOC(=O)CNc1c2ccccc2nc2ccccc12` [(Acridin-9-ylamino)acetic acid ethyl ester], in data set [1] (Excitation wavelength 405 nm and emission wavelength 450 nm), the fluorescence lifetime came out at 14.9 ns.

As for `Cn1c2ccccc2c(=O)c2ccccc21` [N-methyl acridone, 10-methyl-9(10H)-acridone, reference compound], in data set [1], the “Fluorescence Lifetime (nsecs) in PBS pH 7.4” value turned out to be 13.9 nsecs.

For the molecule `Cn1c2ccccc2c(=S)c2ccccc21` [N-methyl thioacridone, 10-methyl-9(10H)-thioacridone, reference compound], the “fluorescence emission intensity compared with N-methyl acridone” value in data set [2] is given as “considerably less fluorescent”.

Consider `Nc1c2ccccc2nc2ccccc12` [Number 1, 9-aminoacridine, reference compound], for which, in data set [2], the “Relative intensity Ex405 nm, Emmax” value was found to be 1 and the “fluorescence emission intensity compared with N-methyl acridone” value is “considerably brighter”. Also, in data set [1], the “Lifetime (ns)” value is reported as 15 ns and the “Fluorescence Lifetime (nsecs) in PBS pH 7.4” value is reported as 16.0 nsecs.

On to `Nc1ccc2nc3ccccc3c(N)c2c1` [Number 6], for which the “Relative intensity Ex405 nm, Emmax” value in data set [2] is given as “Not fluorescent”. Moreover, the “fluorescence (in words)” value in data set [4] (free amino dye, no acetylation) was “non-fluorescent”. The “Lifetime (ns)” value in data set [1] is on record as “Not fluorescent”.

With `CC(=O)Nc1ccc2nc3ccc(N)cc3c(N)c2c1` [Number 7], the “Relative intensity Ex405 nm, Emmax” value in data set [2] is on record as “Not fluorescent”. Moreover, the “Lifetime (ns)” value in data set [1] was “multiexponential”.
